Assay results: patent US20120283175A1, “ANTIBACTERIAL COMPOSITIONS” (Achaogen, Inc., priority 2009, published 2012)
Values after ≈ are worked out from the molar mass of the structure shown. Values joined by “and” are separate entries in the source; they are usually repeats but may differ in a detail not shown here. Identical values can stand only once. “Also recorded” adds a separate entry of the source. Like-named read-outs stand apart in the source and are kept apart here.

How the values were obtained:
Escherichia coli = assay: Checkerboard synergy assay with LpxCi-4; assay type: cell-based; conditions: combination with LpxCi-4
Source text: (§1) One classic method for assessing synergy, referred to as the checkerboard assay, is used to predict the efficacy of antibacterial agents, and is described by Scribner et. al., (Antimicrobial Agents and Chemotherapy 21(6):939-943 (1982)) and in Goodman & Gilman (The Pharmacological Basis of Therapeutics, Sixth Edition, pp. 1097-1098 (1980)). The checkerboard assay involves serial two-fold dilutions of the antibiotics individually and in combination in broth, which is then inoculated with the microorganism to be tested. After incubation, the minimum inhibitory concentration (MIC) of each drug used individually and in combination is determined (N.B., the MIC is the lowest concentration of the drug that inhibits growth in the medium). Synergism is indicated by a decrease in the MIC of each drug when used in combination. Antagonism is indicated by an increase in the MIC of either or both drugs when used in combination. Alternate methods of assessing synergy are reviewed in Greco, et al., Pharmacological Reviews 47(2):[…] (1995), incorporated herein by reference in its entirety.
(§2) Partial or full inhibition of LpxC should compromise the outer membrane and thus allow these synergizing agents to enter the cells and exert an antibacterial effect at concentrations where cells untreated with an LpxC inhibitor are unaffected. As a first step, checkerboard synergy assays for a variety of antibacterial agents were perform with several LpxC inhibitors, on several species of gram negative bacteria.
(§3) Bacterial isolates were cultivated from −70° C. frozen stocks of the indicated strains by overnight passages at 35° C. in ambient air on Mueller-Hinton agar (Beckton Dickinson, Franklin Lakes, N.J.). Minimum Inhibitory Concentrations (MICs) were determined by the broth microdilution method in accordance with the Clinical and Laboratory Standards Institute (CLSI) guidelines. In brief, organism suspensions were adjusted to a 0.5 McFarland standard to yield a final inoculum between 3×10^5 and 7×10^5 colony-forming units (CFU)/mL. Drug dilutions and inocula were made in sterile, cation adjusted Mueller-Hinton Broth (Beckton Dickinson). An inoculum volume of 100 μL was added to wells containing 100 μL of broth with 2-fold serial dilutions of drug. All inoculated microdilution trays were incubated in ambient air at 35° C. for 18-24 hours. Following incubation, the lowest concentration of the drug that prevented visible growth (OD600 nm <0.05) was recorded as the MIC.
(§4) Standard checkerboard assays were performed with a combination of the indicated agents and LpxCi-4. Table 2 provides the FICI calculated according to standard techniques.

Klebsiella pneumoniae = assay: Checkerboard synergy assay with LpxCi-4; assay type: cell-based; conditions: combination with LpxCi-4
Source text: as §1, §2, §3, §4

Pseudomonas aeruginosa = assay: Checkerboard synergy assay with LpxCi-4; assay type: cell-based; conditions: combination with LpxCi-4 (3936); Pseudomonas aeruginosa (ATCC27853 in text)
Source text: as §1, §2, §3, §4

Yersinia enterocolitica = assay: Checkerboard synergy assay with LpxCi-4; assay type: cell-based; conditions: combination with LpxCi-4
Source text: as §1, §2, §3, §4

E. coli ATCC25922 = assay: MIC by broth microdilution, wild type strain ATCC25922; assay type: cell-based
Experimental: as §3

envA+ (D21) E. coli = assay: MIC by broth microdilution, isogenic envA+ strain; assay type: cell-based
Experimental: as §3

envA1 (D22) E. coli = assay: MIC by broth microdilution, isogenic envA1 mutant strain; assay type: cell-based; conditions: for MIC: Strain envA1 (D21); for Fold decrease in MIC (envA+/envA1): envA+ vs envA1 E. coli
Experimental: as §3

K. pneumo. (ATCC43816) = assay: Neutropenic thigh in vivo efficacy model (mice); parameters: species or system Klebsiella pneumoniae; Static Dose, LpxC cmpd / Static Dose, LpxC in combination: unit not given here
Source text: (§5) The model was run essentially as described by Craig and others (see Gudmundsson et al., “Murine Thigh Infection Model,” Handbook of Animal Models of Infection, M. A. Sande and O. Zak, Eds.; London: Academic Press, 1999, pp 137-144). Briefly, mice were rendered neutropenic prior to infection with 2 doses of cyclophosphamide, and then infected intramuscularly in the thigh with inocula of 10^3-10^5 CFU of either K. pneumo. (ATCC43816) or P. aeruginosa (ATCC27853). Antibiotics or vehicle alone as a negative control were administered twice at 2 hrs and 14 hrs post-infection. The animals were kept neutropenic for the duration of the experiment in order to minimize the effect of white blood cells on the infection such that the microbiological readout measures the in vivo interaction of drugs and bacteria. At 24 hrs post-infection, thighs were harvested, homogenized, and plated to measure the number of CFUs surviving per thigh. Thighs from a subset of animals were also harvested 2 hrs post-infection to record the CFUs present just prior to the first antibiotic treatment (pre-treatment).

[1] = test system: P. aeruginosa (ATCC27853); conditions: for ΔLogCFU vs 24 hr / Log CFU Mean: 24 hr; for Log CFU Mean: n=5; for in vivo synergy with erythromycin: erythromycin 60 mg/kg
Source text: as §5
This table focuses on the sensitive part of the LpxCi-4 dose response curve (30 mg/kg) by examining the mean log CFU at 0 or 24 hours, as well as the log change in CFU at 24 hours relative to zero hours (“ΔLogCFU vs […]”). Data is given for animals treated with vehicle, LpxCi-4 at 30 mg/kg, a second agent alone at the indicated doses or the combination of LpxCi-4 at 30 mg/kg plus the second agent at the indicated dose. The standard errors for each measurement are also given (n=5 animals/group). By comparing the observed drop in CFU of the combination with the sum of the drop in CFU associated with each of the two agents given separately, one can determine whether the combination is, in fact, synergistic in vivo.

[2] = Pharmacokinetic studies of LpxCi-4 alone or in the presence of vancomycin; assay type: in vivo; conditions: for AUC / Cmax / Tmax / half-life: in vivo, 10 mg/kg
Experimental: This would result in a lower static dose for the LpxC inhibitor and apparent synergy. In order to address this, pharmacokinetic studies of LpxCi-4 either alone or in the presence of vancomycin at 220 mg/kg were performed. […] The half-life (HL_Lambda_z), time to maximum concentration (Tmax), maximal concentration (Cmax), and area under the concentration-time curve (AUC) for LpxCi-4 are provided.

[3] = strain 43816, combination agent Rifampin
[4] = first block of Table 5, mg/kg/day b.i.d.: 3936 30, Rif. 30, Azith. 50
[5] = second block of Table 5, mg/kg/day b.i.d.: 3936 30, Eryth. 60, Dapto. 3, Oxacil. 100
[6] = strain 27853, combination agent Rifampin
[7] = strain 27853, combination agent Vanco
[8] = LpxCi-4 (10 mg/kg) + vancomycin (220 mg/kg)

CO[C@@H]1[C@@H](OC(N)=O)[C@@H](O)[C@H](Oc2ccc3c(O)c(NC(=O)c4ccc(O)c(CC=C(C)C)c4)c(=O)oc3c2C)OC1(C)C [Novobiocin, novobiocin]
FICI index (Escherichia coli): ≦0.25
FICI index (Klebsiella pneumoniae): ≦0.38
FICI index (Pseudomonas aeruginosa): no effect
FICI index (Yersinia enterocolitica): ≦0.63

CCCCCCCCCCNCCN[C@@]1(C)C[C@H](O[C@H]2[C@H](Oc3c4cc5cc3Oc3ccc(cc3Cl)[C@@H](O)[C@@H](NC(=O)[C@@H](CC(C)C)NC)C(=O)N[C@@H](CC(N)=O)C(=O)N[C@H]5C(=O)N[C@H]3C(=O)N[C@H](C(=O)N[C@H](C(=O)O)c5cc(O)c(CNCP(=O)(O)O)c(O)c5-c5cc3ccc5O)[C@H](O)c3ccc(c(Cl)c3)O4)O[C@H](CO)[C@@H](O)[C@@H]2O)O[C@@H](C)[C@H]1O [Telavancin, telavancin]
MIC (E. coli ATCC25922): > 128 µg/mL
MIC (envA+ (D21) E. coli): > 128 µg/mL
MIC (envA1 (D22) E. coli): 16 µg/mL (≈ 9.11 µM)
Fold decrease in MIC (envA+/envA1) (envA1 (D22) E. coli): ≧8
FICI index (Escherichia coli): no
FICI index (Klebsiella pneumoniae): ≦0.31
FICI index (Pseudomonas aeruginosa): no effect
FICI index (Yersinia enterocolitica): ≦0.5

CC(C)(N)[C@H](NC(=O)c1ccc(C#CC#CC2CC2)cc1)C(=O)NO [LpxCi-4, (S)—N-(3-amino-1-(hydroxyamino)-3-methyl-1-oxobutan-2-yl)-4-(cyclopropylbuta-1,3-diynyl)benzamide]
MIC (E. coli ATCC25922): 0.015 µg/mL (≈ 0.0442 µM)
MIC (envA+ (D21) E. coli): 0.015 µg/mL (≈ 0.0442 µM)
MIC (envA1 (D22) E. coli): ≦0.004
Fold decrease in MIC (envA+/envA1) (envA1 (D22) E. coli): ≧4
in vivo synergy with rifampin (K. pneumo. (ATCC43816); bacterial strain ATCC43816): in vivo synergy
in vivo synergy with vancomycin (K. pneumo. (ATCC43816); bacterial strain ATCC43816): in vivo synergy
Static Dose, LpxC cmpd (K. pneumo. (ATCC43816); strain 43816, LpxC compound alone): 36 and 33
Fold Shift Static Dose (K. pneumo. (ATCC43816); [3]): 4x
Static Dose, LpxC in combination (K. pneumo. (ATCC43816); [3]): 9
Fold Shift Static Dose (K. pneumo. (ATCC43816); strain 43816, combination agent Vanco): 6.6x
Static Dose, LpxC in combination (K. pneumo. (ATCC43816); strain 43816, combination agent Vanco (440 mg/kg/day)): 5
shift in static dose (K. pneumo. (ATCC43816); with rifampin, K. pneumoniae ATCC43816): 4 fold
ΔLogCFU vs 24 hr [1, 4]: −1.57
Log CFU Mean [1, 4]: 6.17
ΔLogCFU vs 24 hr [1, 5]: −0.81
Log CFU Mean [1, 5]: 6.83
in vivo synergy with daptomycin ([1]; bacterial strain ATCC27853): does not exhibit in vivo synergy
in vivo synergy with rifampin ([1]; bacterial strain ATCC27853): in vivo synergy
in vivo synergy with vancomycin ([1]; bacterial strain ATCC27853): in vivo synergy
in vivo synergy with erythromycin ([1]; bacterial strain ATCC27853): modest in vivo synergy
in vivo synergy with erythromycin ([1]; bacterial strain ATCC27853, listed as LPxCi-4): only a very modest shift in the dose response curve
in vivo synergy with daptomycin ([1]; bacterial strain ATCC27853, listed as 3936): no measurable in vivo synergy
drop in CFU relative to vehicle ([1]; each agent at 30 mg/kg): 1.57 log
Static Dose, LpxC cmpd ([1]; strain 27853, LpxC compound alone): 60 and 42 and 50
Static Dose, LpxC in combination ([1]; strain 27853, combination agent Daptomycin): 50
Fold Shift Static Dose ([1]; strain 27853, combination agent Erythromycin): <1.5x
Static Dose, LpxC in combination ([1]; strain 27853, combination agent Erythromycin (60 mg/kg in text)): 40
Static Dose, LpxC in combination ([1]; strain 27853, combination agent Oxacillin): 50
Fold Shift Static Dose [1, 6]: 1.9x
Static Dose, LpxC in combination [1, 6]: 22
Fold Shift Static Dose [1, 7]: 2.4x
Static Dose, LpxC in combination [1, 7]: 25
shift in static dose ([1]; with rifampin, P. aeruginosa ATCC27853): 2 fold
AUC [2, 8]: 6870 ng·h/mL
Cmax [2, 8]: 2630 ng/mL
Tmax [2, 8]: 0.25 h
half-life [2, 8]: 3.27 h
AUC ([2]; LpxCi-4 (10 mg/kg) alone): 6030 ng·h/mL
Cmax ([2]; LpxCi-4 (10 mg/kg) alone): 2200 ng/mL
Tmax ([2]; LpxCi-4 (10 mg/kg) alone): 0.5 h
half-life ([2]; LpxCi-4 (10 mg/kg) alone): 2.63 h
PK / AUC of LpxCi-4 in the presence vs absence of vancomycin ([2]; vancomycin at 220 mg/kg, 220 mg/kg): not significantly affected; also recorded: essentially identical
